Measured values as given in article PMC10812672, “Short Antimicrobial Peptide Derived from the Venom Gland Transcriptome of Pamphobeteus verdolaga Increases Gentamicin Susceptibility of Multidrug-Resistant Klebsiella pneumoniae” (Antibiotics, 2023).

Key:
E. coli = conditions: custom database compiled from public databases and PubMed; averaged where multiple reports; cited from earlier work
Source text: (§1) Agelaia-CP Agelaia pallipes […] […] 13 1 4.00 1.25 s IsCT [EK7. GP8. Opisthacanthus SK11] madagascariensi […] 13 4 2.00 1.17 s Opisthacanthus IsCT [EK7] madagascariensi […] 13 3 2.00 1.00 s Opisthacanthus IsCT [WL6. SK11 ] madagascariensi ILGKILKGIKKLF 13 4 2.00 2.00 s Opisthacanth ... || (+ 2 further places)

S. aureus = conditions: custom database compiled from public databases and PubMed; averaged where multiple reports; cited from earlier work
Source text: as §1

[1] = test system: multidrug-resistant (MDR) strain of K. pneumoniae, clinical isolate; experiment: microbe, parasite or virus in culture; assay type: cell-based, Klebsiella pneumoniae; conditions: for IC50 / MIC: Klebsiella pneumoniae; for MIC / Classification at 10^6 CFU/mL: MDR K. pneumoniae clinical isolate; for Classification at 10^6 CFU/mL: CLSI classification
Experimental: A multidrug-resistant (MDR) strain of K. pneumoniae was identified and isolated from a tertiary-level hospital in Medellin, Colombia, using the VITEK-2 system (bioMérieux, Marcy-l’Étoile, France). The MDR strain was evaluated against several antibiotics at concentrations of 1.56–100 μM. […] In contrast, the strain was susceptible to doxycycline (Supplementary Figure S7g) and chloramphenicol (Supplementary Figure S7h), with MICs of 50 μM and 100 µM, respectively (Table 3). […] All of P. verdolaga’s AMPs were evaluated against the clinical isolate at concentrations of 1.56–200 µM (Supplementary Figure S8). […] A growth inhibition kinetic assay was conducted. […] All of P. verdolaga’s peptides at 100 μM induced morphological changes in the MDR K. pneumoniae, indicating membrane interactions, even though no significant inhibition was observed (Supplementary Figure S9).
The evaluation of the antimicrobial activity of the peptides was conducted using the CLSI’s broth microdilution method for bacterial susceptibility testing. For the screening phase, peptides were evaluated at a single 30 μM concentration, in triplicate and in three independent assays, against the E. coli ATCC® 8739, E. coli ATCC® 25922, S. aureus ATCC® 6538, or S. aureus ATCC® 29213 reference USP and CLSI strains. For the determination of MIC, MBC, or IC50, peptides or antibiotics were evaluated in concentrations between 1.56–200 µM. These evaluations were conducted in triplicate and in three independent assays, against the E. coli ATCC® 25922, S. aureus ATCC® 29213, E. faecalis ATCC® 49532, P. aeruginosa ATCC® 9027, and K. pneumoniae ATCC® BAA-1705, or the clinically isolated MDR strain. In detail, 1 mL of a glycerol stock solution of the ATCC® or clinically isolated bacterial strain was added to 9 mL of Mueller-Hinton Broth and incubated for 18 h, 180 rpm and 37 °C (Incubator 1000, Heidolph Instruments, Schwabach, Germany). After the incubation, 1 mL of the previous solution was transferred to a new recipient containing 9 mL of fresh Mueller-Hinton broth and incubated for 4 h, 180 rpm and 37 °C (Incubator 1000, Heidolph Instruments, Schwabach, Germany). During the second incubation, the peptides or the antibiotics were dissolved in PBS pH 7.20 in concentrations between 19.53–2500 µM (MC5 Micro Balance, Sartorius AG, Göttingen, Germany). An amount of 10 µL of either peptide or antibiotic was dispensed in triplicate in 96-well flat bottom culture plates, along with 10 µL of PBS (Negative activity control), BTM-P1 (Positive activity control), or 10 µL of Mueller-Hinton broth (Blank); then, 110 µL of Mueller-Hinton broth was poured in all wells. Following this, the bacteria were suspended in Mueller-Hinton broth up to a concentration of approximately 1.50 × 10^8 CFU/mL, as measured by optical density at 600 nm between 0.06 to 0.11 (0.5 McFarland standard), in a Multiskan SkyHigh spectrophotometer (ThermoFisher Scientific, Waltham, MA, USA). Amounts of 5 µL of the 1.50 × 10^8 CFU/mL suspension were added to each well (except for the blank) for a final well concentration of approximately 6 × 10^6 CFU/mL. The plate was incubated for 24 h at 37 °C (BE 500, Memmert GmbH, Büchenbach, Germany) and optical density was measured at 600 nm in a Multiskan SkyHigh spectrophotometer (ThermoFisher Scientific, Waltham, MI, USA). Following the measurement of optical density, plates were visually inspected to determine the MIC. Subsequently, 100 µL of the concentration associated to the MIC and 100 µL of the next higher concentration were added to Petri dishes containing Mueller-Hinton Agar. The dishes were then incubated for 24 h at 37 °C (BE 500, Memmert GmbH, Büchenbach, Germany). After incubation, the Petri dishes were visually inspected, and the MBC was determined in the absence of growth. IC50 values were interpolated from regressions with correlation values above 0.70. […]

[2] = 24 h, peptides 1.56–200 µM, antibiotics 1.56–100 µM, 24 h 37 °C

Molecule | MIC E. coli (E. coli) | MIC S. aureus (S. aureus) | IC50 [1] | MIC [1, 2] | MIC [1] | Classification at 10^6 CFU/mL [1]
LNWGAILKKIIK [PNG-1/9, cDB AMP; Panurgus calcaratus] | 4.30 µM | 7.30 µM | – | – | – | –
SIGRRGGYCAGIIKQTCTCYR [Longicin (53-73), cDB AMP; Haemaphysalis longicornis] | 2.00 µM | 2.00 µM | – | – | – | –
O=C(N[C@H](CO)[C@H](O)c1ccc([N+](=O)[O-])cc1)C(Cl)Cl [Chloramphenicol, chloramphenicol] | – | – | 56.2 µM | 100 µM | 4.04 µg/mL | Susceptible
VNWKKVLGKIIKVAK [Lasioglossin LL-I, cDB AMP; Lasioglossum laticeps] | 1.70 µM | 14.3 µM | – | – | – | –
FLFSLIPSAISGLISAFKGRR [Marmelittin, cDB AMP; Mesobuthus martensii] | 6.21 µM | 6.48 µM | – | – | – | –
FLFKLIPKAIKGLVKAIRK [AaeAP2 [S4.8.15K; A11K. N19K], cDB AMP; Androctonus aeneas] | 10.99 µM | 8.24 µM | – | – | – | –
RRWCFRVCYRGFCYRKCR [Polyphemusin-1, cDB AMP; Limulus polyphemus] | 0.9 µM | 0.3 µM | – | – | – | –
LNWGAILKHIIK [PNG-1, cDB AMP; Panurgus calcaratus] | 3.70 µM | 10.60 µM | – | – | – | –
LKWGAILKHIIK [PNG-1/3, cDB AMP; Panurgus calcaratus] | 3.70 µM | 11.70 µM | – | – | – | –
CRRLCYKQRCVTYCRGR [Gomesin, cDB AMP; Acanthoscurria gomesiana] | 0.80 µM | 12.10 µM | – | – | – | –
FLFKLIPKAIKGLLKAFK [AcrAP2 [S4K.N8K.S11K.S15K], cDB AMP; Androctonus crassicauda] | 8.00 µM | 4.00 µM | – | – | – | –
FLFKLIPKAIKKLISKFK [AamAP1 [S4K.H8K.G11.12K.A16K], cDB AMP; Androctonus amoreuxi] | 7.50 µM | 5.00 µM | – | – | – | –
GLLSKFGRLARKLARVIPKV [Pilosulin-2, cDB AMP; Myrmecia pilosula] | 1.33 µM | 4.00 µM | – | – | – | –
C[C@H]1c2cccc(O)c2C(=O)C2=C(O)[C@]3(O)C(=O)C(C(N)=O)=C(O)[C@@H](N(C)C)[C@@H]3[C@@H](O)[C@@H]21 [Doxycycline, doxycycline] | – | – | 38.1 µM | 50 µM | 3.21 µg/mL | Susceptible
ILKKIWKPIKKLF [IsCT-P, cDB AMP; Opisthacanthus madagascariensis] | 2.00 µM | 1.00 µM | – | – | – | –
FFGSLLSLGSKLLPSVFKLFQRKKE [Css54, cDB AMP; Centruroides suffusus suffusus] | 4.35 µM | 4.35 µM | – | – | – | –
INLKAIAALAKKLLG [Mastoparan-like peptide 12c, cDB AMP; Vespa magnifica] | 3.90 µM | 1.95 µM | – | – | – | –
FLFKLIPKAIKGLIKAFK [AcrAP1a [S4K.H8K.S11K.S15K]] [cDB AMP; Androctonus crassicauda] | 8.00 µM | 4.00 µM | – | – | – | –
LNWGALLKHLLK [PNG-1/19, cDB AMP; Panurgus calcaratus] | 3.80 µM | 6.70 µM | – | – | – | –
GFGMALKLLKKVL [Macropin 1, cDB AMP; Macropis fulvipes] | 3.00 µM | 3.70 µM | – | – | – | –

Molecule | MIC E. coli (E. coli) | MIC S. aureus (S. aureus) | IC50 [1] | MIC [1, 2] | MIC [1] | Classification at 10^6 CFU/mL [1]
GMWSKILGHLIR [HAL-1, cDB AMP; Halictus sexcinctus] | 3.80 µM | 7.70 µM | – | – | – | –
FLFKLIPKVIKGLVKAIRK [AaeAP1 [S4.8.15K; A11K. N19K], cDB AMP; Androctonus aeneas] | 10.85 µM | 8.14 µM | – | – | – | –
LNWGKILKHIIK [PNG-1/6, cDB AMP; Panurgus calcaratus] | 4.00 µM | 8.70 µM | – | – | – | –
QCRRLCYKQRCVTYCRGR [Gomesin c(1-18)[Gln1], cDB AMP; Acanthoscurria gomesiana] | 0.48 µM | 1.44 µM | – | – | – | –
ACQFWSCNSSCISRGYRQGYCWGIQYKYCQCQ [Defensin-1, cDB AMP; Centruroides limpidus limpidus] | 13.08 µM | 13.08 µM | – | – | – | –
VNWKKILGKIIKVVK [Lasioglossin LL-III, cDB AMP; Lasioglossum laticeps] | 1.40 µM | 3.90 µM | – | – | – | –
FLGSLFSIGSKLLPGVIKLFQRKKQ [Im-5, cDB AMP; Isometrus maculatus] | 10.00 µM | 3.75 µM | – | – | – | –
LNWKAILKHIIK [PNG-1/5, cDB AMP; Panurgus calcaratus] | 2.30 µM | 5.30 µM | – | – | – | –
GFLSILKKVLPKVMAHMK [Melectin, cDB AMP; Melecta albifrons] | 10.37 µM | 12.80 µM | – | – | – | –
FWGALAKGALKLIGSLFSSFSKKD [Pandinin-2 [P14G], cDB AMP; Pandinus imperator] | 12.50 µM | 12.50 µM | – | – | – | –
ACHAHCQSVGRRGGYCGNFRMTCYCY [Midgut defensin G2, cDB AMP; Haemaphysalis longicornis] | 5.94 µM | 5.09 µM | – | – | – | –
GLHKVMREVLGYERNSYKKFFLR [Ixosin, cDB AMP; Ixodes sinensis] | 10.45 µM | 1.29 µM | – | – | – | –
ILGKIWKIKKLF [IsCT precursor, cDB AMP; Opisthacanthus madagascariensis] | 2.00 µM | 2.00 µM | – | – | – | –
RRWCFRVCYKGFCYRKCR [Polyphemusin-2, cDB AMP; Limulus polyphemus] | 3.87 µM | 5.14 µM | – | – | – | –
PFKLSLHL [Jellein-1, cDB AMP; Apis mellifera] | 2.62 µM | 10.48 µM | – | – | – | –
FIGAIARLLSKIFGKR [Bmkn2, cDB AMP; Mesobuthus martensii] | 1.50 µM | 0.60 µM | – | – | – | –
VWLSALKFIGKHLAKHQLSKL [Lycosin-II, cDB AMP; Lycosa singoriensis] | 12.50 µM | 3.10 µM | – | – | – | –
GMASLLAKVLPHVVKLIK [Codesane, cDB AMP; Colletes daviesanus] | 3.70 µM | 3.70 µM | – | – | – | –
VNWKKILGKIIKVAK [Lasioglossin LL-II, cDB AMP; Lasioglossum laticeps] | 1.40 µM | 9.00 µM | – | – | – | –
FLFKLIPKAIKGLIKAFK [AcrAP1a, cDB AMP; Androctonus crassicauda] | 4 µM | 8 µM | – | – | – | –
